We go through 16 molecules from US4500707A, “Nucleosides useful in the preparation of polynucleotides” (University Patents, Inc., priority 1982, dated 1985).

Where “and” joins values, the source holds several entries; their conditions need not be identical. Equal entries are not always repeated.

What all share (format): physicochemical
The nature of data set [1]: Rate of detritylation and depurination using various solutions (Table II). The following applies: for Detritylation time: 100% detritylation. From the text: A particularly preferred embodiment of the present invention is the detritylation of the 5'-O trityl nucleosides, deoxynucleotides, oligonucleotides, oligodeoxynucleotides, polynucleotides and polydeoxynucleotides using a Lewis acid, particularly zinc bromide, although other Lewis acids can also be employed, e.g. titanium tetrachloride. […] The process is also specific for 5'-O-trityl and thus provides a very practical procedure to permit production of 3'-O-trityl blocked nucleosides by reaction with the 3'-O and 5'-O ditritylated compound.
(§1) The procedure merely requires contacting the reactants preferably in a reaction solvent and detritylation occurs within short reaction times. The Lewis acid is normally suspended in the reaction solvent and the solvent is usually water-free to prevent reaction with the Lewis acid to form protic acids. In present experience, nitromethane is the preferred solvent although a variety of other solvents can be used, e.g. dioxane and tetrahydrofuran and mixtures of such solvents with each other and other solvents such as acetone, methylene chloride, and the like.
The Rate of Detritylation and Depurination of 5'-
Dimethoxytrityl-N--benzoyldeoxyadenosine Using
*All depurination results summarized in this communication were obtained
by analyzing reaction mixtures using reverse phase high pressure liquid
chromatography. Estimates of detritylation times were by thin layer
**A nitromethane solution saturated with ZnBr2 is approximately 0.1

Data set [2] is described as follows: Protic acid hydrolysis rates of triarylmethyl groups attached to the 5'-hydroxyl of deoxynucleosides (Table VIII). The conditions noted are these: 2% toluenesulfonic acid in chloroform:methanol (7:3). As to the method: The 5'-triarylmethyldeoxynucleosides were treated with protic and Lewis acids using carefully controlled conditions. The results of these studies are also recorded in Tables VII and VIII. […] The rates are more variable with protic acids.
^1 Reaction conditions were 2% toluenesulfonic acid in
chloroform:methanol (7:3). Aliquots were removed from the reaction
solution, quenched with ammonium acetate and analyzed visually after tlc
and exposure to HCl vapors. Time points were taken at 15, 30, 45, 60, 90,

Data set [3] can be described thus: Spectral characteristics of selected triarylmethyl alcohols (Table IX). The conditions noted are these: saturated ZnBr2 nitromethane solution; for Extinction Coefficient: at the λ maximum of the same line. The protocol:
of selected triarylmethyl alcohols.
^2 All spectra were taken in a saturated ZnBr2 nitromethane
solution. All spectra were recorded on a Carey model 21, scanning from 35

Data set [4] is described as follows: Rate of detritylation and degradation of 5'-trityldeoxynucleosides using ZnBr2 at room temperature (Table III). The conditions noted are these: for Detritylation time: 100% detritylation; for Detritylation %: <1 min.
Excerpt: as §1
The results obtained with various tritylthymidines at room temperature with zinc bromide is give in Table III.
The Rate of Detritylation and Degradation of 5'-
Trityldeoxynucleosides Using ZnBr2 at Room

The nature of data set [5]: Rate of detritylation of various tritylthymidines using saturated ZnBr2 in nitromethane at 0° C. (Table IV). The conditions noted are these: for % Detritylation: at the time of the same line (1, 10 or 30 min); for Detritylation time: time for the % detritylation of the same line.
Excerpt: as §1
and at 0° C. in Table IV.
The Rate of Detritylation of Various Tritylthymidines
Using Saturated ZnBr2 in Nitromethane at 0° C.

Regarding `COc1ccc(C(OC[C@H]2O[C@@H](n3cnc4c(NC(=O)c5ccccc5)ncnc43)C[C@@H]2O)(c2ccccc2)c2ccc(OC)cc2)cc1` [5'-O-dimethoxytrityl-N-benzoyldeoxyadenosine], the Depurination time came to 8 h in data set [1] (0.5% toluenesulfonic acid/CHCl3:CH3OH (7:3), 0° C., 50% depurination); 0.083 h in data set [1] (2% toluenesulfonic acid/CHCl3:CH3OH (7:3), 18° C., 50% depurination); 21 h in data set [1] (satd. ZnBr2/CH3NO2, 0° C., <5% depurination); 10 h in data set [1] (satd. ZnBr2/CH3NO2, 18° C., 50% depurination). Besides, the Detritylation time in data set [1] (0.5% toluenesulfonic acid/CHCl3:CH3OH (7:3), 0° C.) is given as 10 min; in data set [1] (2% toluenesulfonic acid/CHCl3:CH3OH (7:3), 18° C.), under 1 min; in data set [1] (satd. ZnBr2/CH3NO2, 0° C.) it was 10 min; in data set [1] (satd. ZnBr2/CH3NO2, 18° C.), under 1 min. Moreover, the Detritylation % in data set [1] (0.5% toluenesulfonic acid/CHCl3:CH3OH (7:3), 0° C., 10 min) came to 100%; in data set [1] (2% toluenesulfonic acid/CHCl3:CH3OH (7:3), 18° C., <1 min), 100%; in data set [1] (satd. ZnBr2/CH3NO2, 0° C., 10 min), 100%; in data set [1] (satd. ZnBr2/CH3NO2, 18° C., <1 min), 100%. Besides, the Depurination % in data set [1] (0.5% toluenesulfonic acid/CHCl3:CH3OH (7:3), 0° C., 8 hrs) was 50%; in data set [1] (2% toluenesulfonic acid/CHCl3:CH3OH (7:3), 18° C., 5 min), 50%; in data set [1] (satd. ZnBr2/CH3NO2, 0° C., 21 hrs) it was under 5%; in data set [1] (satd. ZnBr2/CH3NO2, 18° C., 10 hrs), 50%. Also, in data set [2], the “Time to Complete Hydrolysis” value amounted to 30 s.

Turning to `COc1ccccc1C(O)(c1ccccc1OC)c1cccc2ccccc12` [R1 = R2 = b; R3 = n], in data set [3], the “λ Maximum(s)” value worked out at 586 nanometers and the “Extinction Coefficient” value worked out at 15500 Molar^-1 cm^-1.

In data set [4], `COc1ccc(C(OC[C@H]2O[C@@H](n3ccc(NC(=O)c4ccccc4)nc3=O)C[C@@H]2O)(c2ccccc2)c2ccc(OC)cc2)cc1` [5'-O-dimethoxytrityl-N-benzoyldeoxycytidine] came in with a Degradation time of 24 h, a Detritylation time of under 1 min and a Detritylation % of 100%. Also, the “Time to Complete Hydrolysis” value in data set [2] amounted to 30 s.

Take `Cc1ccc(C(OC[C@H]2O[C@@H](n3cnc4c(NC(=O)c5ccccc5)ncnc43)C[C@@H]2O)(c2ccccc2)c2ccccc2)cc1` [R1 = h; R2 = R3 = a, A]: in data set [2], the “Time to Complete Hydrolysis” value stood at 240 s and the “t1/2 in H+” value came to 60 s.

On to `COc1ccccc1C(O)(c1ccccc1)c1ccccc1OC` [R1 = R2 = b; R3 = a], for which, in data set [3], the “λ Maximum(s)” value was 423 nanometers and 503 nanometers and 586 nanometers.

For `COc1ccc(C(O)(c2ccccc2)c2cccc3ccccc23)cc1` (stereo not shown) [R1 = a; R2 = c; R3 = n], in data set [3], the “λ Maximum(s)” value was 545 nanometers and 455 nanometers; the “Extinction Coefficient” value was 25000 Molar^-1 cm^-1 and 28000 Molar^-1 cm^-1.

`COc1ccc(C(OC[C@H]2O[C@@H](n3cc(C)c(=O)[nH]c3=O)C[C@@H]2O)(c2ccccc2)c2cccc3ccccc23)cc1` (stereo partly shown) [R1 = n; R2 = c; R3 = a, T]: in data set [2], the “Time to Complete Hydrolysis” value came to 45 s and the “t1/2 in H+” value was found to be 30 s.

Turning to `COc1ccccc1C(OC[C@H]1O[C@@H](n2cc(C)c(=O)[nH]c2=O)C[C@@H]1O)(c1ccccc1OC)c1cccc2ccccc12` [R1 = R2 = b; R3 = n, T], in data set [2], the “Time to Complete Hydrolysis” value worked out at 90 s and the “t1/2 in H+” value came to 45 s.

Turning to `Cc1ccc(C(O)(c2ccccc2)c2ccccc2)cc1` [R1 = h; R2 = R3 = a], in data set [3], the “λ Maximum(s)” value was determined as 452 nanometers and the “Extinction Coefficient” value was found to be 42000 Molar^-1 cm^-1.

For `COc1ccccc1C(OC[C@H]1O[C@@H](n2ccc(NC(=O)c3ccccc3)nc2=O)C[C@@H]1O)(c1ccccc1OC)c1cccc2ccccc12` [R1 = R2 = b; R3 = n, C], the “Time to Complete Hydrolysis” value in data set [2] came out at 120 s.

Consider `OC(c1ccccc1)(c1ccc(F)cc1)c1cccc2ccccc12` (stereo not shown) [R1 = a; R2 = e; R3 = n], for which, in data set [3] (listed as R1 = a, R2 = n, R3 = e), the “λ Maximum(s)” value is 577 nanometers and 421 nanometers.

Regarding `Cc1cn([C@H]2C[C@H](O)[C@@H](COC(c3ccccc3)(c3ccccc3)c3ccccc3)O2)c(=O)[nH]c1=O` [5'-Tritylthymidine], in data set [5], the “% Detritylation” value is 50% and the Detritylation time amounted to 10 min.

Take `COc1ccc(C(OC[C@H]2O[C@@H](n3cnc4c(=O)[nH]c(NC(=O)C(C)C)nc43)C[C@@H]2O)(c2ccccc2)c2ccc(OC)cc2)cc1` [5'-O-dimethoxytrityl-N-isobutyryldeoxyguanosine]: in data set [4], the Degradation time is 50 h, the Detritylation time was under 1 min and the Detritylation % is recorded as 100%. The “Time to Complete Hydrolysis” value in data set [2] was 30 s.

In data set [4], `COc1ccc(C(OC[C@H]2O[C@@H](n3cc(C)c(=O)[nH]c3=O)C[C@@H]2O)(c2ccccc2)c2ccc(OC)cc2)cc1` [5'-Dimethoxytritylthymidine] came in with a Degradation time of 24 h, a Detritylation time of under 1 min and a Detritylation % of 100%. In data set [5], the “% Detritylation” value was 50% and the Detritylation time came to 1 min. In addition, the “Time to Complete Hydrolysis” value in data set [2] came to 30 s.

Turning to `Cc1cn([C@H]2C[C@H](O)[C@@H](COC(c3ccccc3)(c3ccc(F)cc3)c3cccc4ccccc34)O2)c(=O)[nH]c1=O` (stereo partly shown) [R1 = n; R2 = e; R3 = a, T], in data set [2], the “Time to Complete Hydrolysis” value is over 600 s and the “t1/2 in H+” value was determined as 180 s.

As for `COc1ccccc1C(OC[C@H]1O[C@@H](n2cnc3c(=O)[nH]c(NC(=O)C(C)C)nc32)C[C@@H]1O)(c1ccccc1)c1ccccc1OC` [R1 = R2 = b; R3 = a, G], in data set [2], the “Time to Complete Hydrolysis” value came to 45 s and the “t1/2 in H+” value came out at 15 s.
